# Experimental data published in patent US8507555B2, “Non-toxic anti-cancer drug combining ascorbate, magnesium and a naphthoquinone” (Summa Health System, priority 2006, dated 2013).
# Where two headings read alike, the source gives them in different places.
# Experiments:
# [1] = system: DU145 Prostate Cancer Cells; assay: MTT cytotoxicity assay, DU145 prostate cancer cells; type: cell-based, human; conditions: read-out: CD50, vitamin alone
# Method: (§1) The effect of the new Mg-containing formulation, which combined MgVC2+VK3, on proliferation and survival of cancer cells was evaluated was then evaluated using the MTT assay, a […] assay that measures the number of viable cells in a cell sample. 3-[4,5-dimethylthiazol-2-yl]-2,5-diphenyltetrazolium bromide (MTT) is a chromogen that is converted to a measurable colored product by viable cells. Therefore, the amount of color measured is proportional to the number of viable cells. This assay has been used widely to assess the cytotoxicity and selectivity of anti-cancer drugs because MTT is suitable for rapid toxicity characterization of new drug candidates and formulations. One way of assigning a cytotoxic activity to an agent is by converting the raw date to a CD50 value, which represent the amount (dose) of the agent needed to achieve 50% of the maximal cytotoxic activity. A lower CD50 indicates a greater cytotoxic activity (as a lower amount of the agent is needed to achieve a fixed level of cytotoxicity). Two agents can be compared by examining the fold-increase or decrease in their CD50 values.
# (§2) To evaluate the antitumor activity at a MgVC2:VK3 ratio of […], MgVC was combined with VK3 at a MgVC2:VK3 ratio of 100:1 (which is effectively a VC:VK3 ratio of 200:1). The NaVC:K3 formulation was prepared at a ratio of 200:1.
# The antitumor activity of the two formulations against a human androgen-independent prostate cancer cell line DU145 was evaluated in the MTT assay.
# HS68 Fibroblasts = assay: MTT cytotoxicity assay, HS68 fibroblasts; type: cell-based; conditions: read-out: CD50, vitamin alone
# Method: as §1, §2
# This indicates a selectivity for tumor vs. “normal” cells.
# DNase I = conditions: tumor cells; cited from earlier work
# [2] = Homo sapiens, DU-145, 24 h, 1 day
# [3] = Homo sapiens, DU-145, 48 h, 2 days
# [4] = Homo sapiens, DU-145, 72 h, 3 days
Molecule,"IC50 [1, 2]","IC50 [1, 3]","IC50 [1, 4]","IC50 (HS68 Fibroblasts; Homo sapiens, 24 h, 1 day)","IC50 (HS68 Fibroblasts; Homo sapiens, 48 h, 2 days)","IC50 (HS68 Fibroblasts; Homo sapiens, 72 h, 3 days)",time of exposure to re-expression of latent DNase I activity (DNase I),IC50 ([1]; 1 day),IC50 ([1]; 2 days),IC50 ([1]; 3 days),IC50 (HS68 Fibroblasts; 1 day),IC50 (HS68 Fibroblasts; 2 days),IC50 (HS68 Fibroblasts; 3 days)
"O=C1O[C@H]([C@@H](O)CO)C(O)=C1O [NaVC, sodium ascorbate]",3070 µM,1480 µM,994 µM,1.47 mM,1.24 mM,1.19 mM,,,,,,,
"CC1=CC(=O)c2ccccc2C1=O [VK3, 2-methyl-1,4-naphthoquinone]",37.5 µM,37.5 µM,37.5 µM,0.0187 mM,0.019 mM,0.0187 mM,≤ 15 min,,,,,,
magnesium ascorbate [MgVC2],,,,,,,,2510 µM,1150 µM,432 µM,1.66 mM,1.75 mM,1.5 mM
